Values quoted from earlier work, collected in PMC10046020, “In Silico Screening and Optimization of Cell-Penetrating Peptides Using Deep Learning Methods” (Biomolecules, 2023).

Conditions: Spreadsheet S1: 150 CPP and 150 non-CPP peptides collected from CellPPD, MLCPP, CPPsite 2.0, Lifetein and other publications; cited from earlier work
Text: Supplement biomolecules-13-00522-s001.zip/biomolecules-2162660_Supplementary Spreadsheets S1 Test Set.csv, table | column: class || Supplement biomolecules-13-00522-s001.zip/biomolecules-2162660_Supplementary Spreadsheets S2 Train Set.csv, table | column: class

Row | Substance | class (CPP / Non-CPP), Test Set
1 | YGRKKRRQRRRGC | CPP
2 | PKKGSKKAVTKAQKKDGA | CPP
3 | IHSHWFVMVLKGKAARQRDDLWTHPCFPS | Non-CPP
4 | TTPFTIRGPLGNQGRGNPVR | Non-CPP
5 | SRISNRLSSSATRT | Non-CPP
6 | KKKQYTWIHHGVVEVD | Non-CPP
7 | MAPTKRKGSCPGAAPNKKP | CPP
8 | INWLKLGKAIIDAL | Non-CPP
9 | FVPFFTHSELQKIREKERNKGQ | Non-CPP
10 | GMNCSREYAHCTSAYV | Non-CPP
11 | KKKKKKKKLLLLLLLL | Non-CPP
12 | AEQNPIYWARYADWLFTTPLLLLDLALLVDADEGT | CPP
13 | AGYLLGHINLHHLAHLHHIL | CPP
14 | QAHVHVWHKYSVKTVYH | Non-CPP
15 | YTMQMLLEIHRKNW | Non-CPP
16 | PVVHLTLRQAGDDFGR | Non-CPP
17 | GFFTLIKAANKLINKTVNKEAGKGGLEIMA | Non-CPP
18 | IAARIKLRSRQYIKLRHL | Non-CPP
19 | KALKKLLAKWAAAKALL | CPP
20 | KKLSLCLKRIGDELDS | Non-CPP
21 | GLFLDTLKGLAGKLLQGLKCIKAGCKP | Non-CPP
22 | AGCKNFFWKMFTSC | Non-CPP
23 | VTQADVGSALANLKIPGVGS | Non-CPP

Row | Substance | class (CPP / Non-CPP), Test Set
24 | FLAGLIGGLAKML | Non-CPP
25 | RARRNRRARILFQYRARNRARN | CPP
26 | AVNANFGWQDKRFSTFG | Non-CPP
27 | GCCSHPACNVNNPHICG | Non-CPP
28 | ACRGRGRGCGRGRGRCG | CPP
29 | KRKKKGKGLGKKRDPCLRKYK | CPP
30 | SDPSVPLRPEEDELIDQ | Non-CPP
31 | KKLSECLKRIGDELDN | Non-CPP
32 | RFTFHFRFEFTFHFE | CPP
33 | KNLRRIIRKGIHIIKKYF | CPP
34 | ARRCSGSGSGCGSGSGSCGRR | CPP
35 | TRQARRNRRRWRERQR | CPP
36 | ARRRRCSGSGSGCGSGSGSCGRRRR | CPP
37 | FLSFLLGPLIDLISKG | Non-CPP
38 | LNSLGYLLGKALAALAKKIL | Non-CPP
39 | DFDMLRCMLGRVYYPCWQV | Non-CPP
40 | FTFGGGYVYFEEYAY | Non-CPP
41 | NAGGWFSSWFFSNTANEDQDDMLPSTSAAAGETNYARN | Non-CPP
42 | KMTRAQRRAAARRNRWTAR | CPP
43 | RHHLRHLRRHLRHLLRHLRHHLRHLRRHLRHLL | CPP
44 | FLPLLAGVVANFLPQIICKIARKC | Non-CPP
45 | ELVVLGKLYGRKKRRQRRR | CPP
46 | EILLPNSYNAYESYKYPGMFIALSK | Non-CPP

Row | Substance | class (CPP / Non-CPP), Test Set
47 | ADCKNFFWKTFTSC | Non-CPP
48 | LIRLWSHLIHIWFQNRRLKWKKKC | CPP
49 | FKCRRWQWRMKKLG | CPP
50 | LLKTTALLKTTALHKTTA | Non-CPP
51 | LAQLLAQLLAQLGGGGRRRRRRRRR | CPP
52 | KGRKKRRQRRRPPQ | CPP
53 | YGFMELFDDVTAIFSIDHCQEEYYEQMANNVM | Non-CPP
54 | KKLALHALHLLALLWLHLAHLALKK | CPP
55 | GRKKRRQRRRG | CPP
56 | RRLRHLRHHYRRRWHRFR | CPP
57 | KLAKLAKKLAKLAK | CPP
58 | PLGPVVHKCCPGFGGLQWLPLLWNWYQNMWGN | Non-CPP
59 | GDCLPHLKLCKENKGCCSKKCKRRGTNIEKRCR | CPP
60 | ELFSPIAIAVLGSCVL | Non-CPP
61 | KLDFLGEGQFATVYKARDKNT | Non-CPP
62 | FKCRRWQWRMKKLGAPSITCVRRAF | CPP
63 | HDEFERHAEGEFTSDVSSYLEGQAAKEFIAWLVKGR | Non-CPP
64 | CCTGRKKRRQRRR | CPP
65 | MLPRLICINDYEQHAKSVLPKSIYDYYRSGANDEE | Non-CPP
66 | ICITRRSICMVTCNKEWPQNRNAHTFLI | Non-CPP
67 | YGRKKRRQRRTALDWSWLQTE | CPP
68 | STGKANKITITNDKGRLSK | CPP
69 | LLKHTALLKTTALLKTTA | Non-CPP

Row | Substance | class (CPP / Non-CPP), Test Set
70 | VGALAVVVWLWLWLWAGSGPKKKRKVC | CPP
71 | VKKKKIKREIKIAAQRYGRELRRMADEFHV | CPP
72 | GRCTKSIPPICWPD | CPP
73 | YSSQHLCGSNLVEALYMTCGRSGFYRPHD | Non-CPP
74 | FDPYALSEHDEERPQNVQSKSRTAELQAEIDDTVGI | Non-CPP
75 | GWTNLSAGYLLGPPPGFSPFS | Non-CPP
76 | HTPGNSNKWKHLQENKKGRPRR | CPP
77 | IVMVGDGGVGKSAMTIQFIQSTFV | Non-CPP
78 | TERQIKIWFQNRCMK | Non-CPP
79 | TRTSRGWHTTDLKYN | Non-CPP
80 | NWVTMKDSADSIDHECPRYFDTCERSCKISE | Non-CPP
81 | WRRRYRRWRRRRRWRRRPRR | CPP
82 | GWTNLSAGCLLGPPPGFSPFR | Non-CPP
83 | YGDCLPHLKLCKENKDCCSKKCKRRGTNIEKRCR | CPP
84 | RPEGQNYTEGIAVVF | Non-CPP
85 | NAKTRRHERRRKLAIER | CPP
86 | MIRIAALNASSTIEDDHEGSFKSHKIQTKEAQEAE | Non-CPP
87 | CLGSGEQCVRDTSCCSMSCTNNICF | Non-CPP
88 | GLKKLAELAHKLLKLGC | CPP
89 | LSNTLAELYVREHLR | Non-CPP
90 | SWFASTGGRDSKIDVWSLVP | Non-CPP
91 | FKCRRWQWRMKKLGKRSKNKGFKEQAKSLLKWILD | CPP
92 | ACSGSGSGCGSGSGSCGRRRRRRRR | CPP

Same assay, conditions: Spreadsheet S2: peptides collected from CellPPD, MLCPP, CPPsite 2.0, Lifetein and other publications; cited from earlier work

Row | Substance | class (CPP / Non-CPP), Train Set
93 | RRRRRRRGGKLAKLAKKLAKLAK | CPP
94 | IYLATALAKWALKQGFGGRRRRRRR | CPP
95 | IYLATALAKWALKQGGRRRRRRR | CPP

Same assay, conditions: cited from earlier work

Row | Substance | class (CPP / Non-CPP), Test Set
96 | QNLGNQWAVGHLM | Non-CPP
97 | CARSKNKDC | CPP
98 | EGGGPQWAVGHFM | Non-CPP
99 | RRRRRRRRRR | CPP
100 | RHVYHVLLSQ | CPP
101 | VIVTERVLLLVAP | Non-CPP
102 | RRLLRRLRR | CPP
103 | YGRGGRRGRRR | CPP
104 | NYRWRCKN | CPP
105 | NTGTWLKYHS | CPP
106 | YTFGLKTSFNVQ | CPP
107 | MVMEMRNF | Non-CPP
108 | REDEDEIEW | CPP
109 | IPLVVPLC | CPP
110 | FLPFLAKILTGVL | Non-CPP
111 | IKRYLIKR | Non-CPP
112 | VVLYKYRCYKVI | CPP
113 | VIVYIVVKDASSK | Non-CPP
114 | LIKRKRLI | Non-CPP
115 | RFVHNC | Non-CPP
116 | WRWKKKKA | CPP
117 | MEPLWWANYDNTQ | Non-CPP
118 | PLDGMCDKGNYTQ | Non-CPP
119 | RKKNPNCRR | CPP
120 | VDFEEAYLAVS | Non-CPP
121 | RRRRRRRRK | CPP
